The source of these data is EP2070923A1, “Insecticide iminoheterocycles” (priority 2007, dated 2009).

Some results are limits rather than exact numbers.

The nature of one data set: logP (HCOOH). Particulars: hplc, formic acid.
A further data set relates to Tetranychus urticae. Briefly: Tetranychus test, OP-resistant (spray treatment). The class given is in vivo. The note with it: foliar, spray on Phaseolus vulgaris leaf discs, 100 % = all spider mites killed, read-out: Wirkung. An excerpt: Tetranychus-Test, OP-resistent (Spritzbehandlung)
(§1) Zur Herstellung einer zweckmäßigen Wirkstoffzubereitung vermischt man 1 Gewichtsteil Wirkstoff mit den angegebenen Mengen Lösungsmittel und Emulgator und verdünnt das Konzentrat mit emulgatorhaltigem Wasser auf die gewünschte Konzentration. Bohnenblattscheiben (Phaseolus vulgaris), die von allen Stadien der Gemeinen Spinnmilbe (Tetranychus urticae) befallen sind, werden mit einer Wirkstoffzubereitung der gewünschten Konzentration gespritzt. Nach der gewünschten Zeit wird die Wirkung in % bestimmt. Dabei bedeutet 100 %, dass alle Spinnmilben abgetötet wurden; 0 % bedeutet, dass keine Spinnmilben abgetötet wurden. Bei diesem Test zeigen z. B. die folgenden Verbindungen der Herstellungsbeispiele eine Wirkung von ≥ 80 % bei einer Aufwandmenge von 100 g/ha: • Bsp. Nr. 83

Another data set concerns Boophilus microplus. Kind of data set: Boophilus microplus test (injection). The class given is in vivo. Particulars: 20 µg/Tier; injection into abdomen; 100 % = no tick laid fertile eggs. From the text:
Boophilus microplus -Test (Injektion)
Zur Herstellung einer zweckmäßigen Wirkstoffzubereitung vermischt man 1 Gewichtsteil Wirkstoff mit der angegebenen Menge Lösungsmittel und verdünnt das Konzentrat mit Lösungsmittel auf die gewünschte Konzentration. Die Wirkstofflösung wird in das Abdomen (Boophilus microplus) injiziert, die Tiere werden in Schalen überführt und in einem klimatisierten Raum aufbewahrt. Nach der gewünschten Zeit wird die Wirkung in % bestimmt. Dabei bedeutet 100%, dass keine Zecke fertile Eier gelegt hat. Bei diesem Test zeigen z. B. die folgenden Verbindungen der Herstellungsbeispiele eine Wirkung von = 80 % bei einer Aufwandmenge von 20 µg/Tier: • Bsp. Nr. 43, 44, 45, 46, 63, 64, 65, 66

The subject of a further data set is Myzus persicae. Kind of data set: Myzus test (spray treatment). It counts as in vivo. The note with it: foliar, 500 g/ha, spray on Brassica pekinensis leaf discs, 100 % = all aphids killed, read-out: Wirkung.
Text: Myzus-Test (Spritzbehandlung)
as §1, with “Konzentration. Chinakohlblattscheiben (Brassica pekinensis),” for “Konzentration. Bohnenblattscheiben (Phaseolus vulgaris),”, “der Grünen Pfirsichblattlaus (Myzus persicae)” for “der Gemeinen Spinnmilbe (Tetranychus urticae)”, “alle Blattläuse” for “alle Spinnmilben”, “keine Blattläuse” for “keine Spinnmilben”, “von 500” for “von 100”, “Nr. 2, 3, 31, 32, 33, 36, 37, 39, 40, 41, 42, 43, 44, 45, 46, 63, 64, 65, 66, 86, 87, 88, 90, 95, 96, 97, 99, 103” for “Nr. 83”

Another data set has as its system Lucilia cuprina Larven. Briefly: Lucilia cuprina test (treated horse meat, larvae). The class given is in vivo. The note with it: 100 % = all larvae killed, read-out: Abtötung. An excerpt: Zur Herstellung einer zweckmäßigen Wirkstoffzubereitung vermischt man 1 Gewichtsteil Wirkstoff mit der angegebenen Menge Wasser und verdünnt das Konzentrat mit Wasser auf die gewünschte Konzentration. Gefäße, die Pferdefleisch enthalten, das mit der Wirkstoffzubereitung der gewünschten Konzentration behandelt wurde, werden mit Lucilia cuprina Larven besetzt. Nach der gewünschten Zeit wird die Abtötung in % bestimmt. Dabei bedeutet 100 %, dass alle Larven abgetötet wurden; 0 % bedeutet, dass keine Larven abgetötet wurden. Bei diesem Test zeigen z. B. die folgenden Verbindungen der Herstellungsbeispiele eine Wirkung von ≥ 80 % bei einer Aufwandmenge von 100 ppm: • Bsp. Nr. 65

One may read the chromatographic logP as lipophilicity estimated from chromatographic retention. A lower chromatographic logP goes with lower lipophilicity. Regarding `COCCNC(=S)N1CCOC1=NCc1cccn1C` [Beispiel 83], in “logP (HCOOH)”, the chromatographic logP turned out to be 2.37. Further, in the data set with Tetranychus urticae, the mortality at 100 g/ha is at least 80%.

As to `COCCNC(=S)N1CCOC1=N[C@@H](C)c1cccs1` [Beispiel 65], the chromatographic logP in “logP (HCOOH)” stood at 3.38. Moreover, the Wirkung in the data set on Boophilus microplus stood at 80%. Further, the mortality at 500 g/ha in the data set on Myzus persicae is at least 80%. Moreover, in the data set with Lucilia cuprina Larven, the mortality at 100 ppm is at least 80%.
